# Test results reported in PubChem BioAssay (NCI).
#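 GI50 = concentration required for 50% inhibition of growth. At the TGI there is no net growth.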
# Tests used:
# Assay in all cases: growth of human tumour cells (NCI), 384-well format
# HT29 colon = tested on: HT29 colon
# TK-10 renal = tested on: TK-10 renal
# MDA-MB-231 breast = tested on: MDA-MB-231 breast
# HCT-15 colon = tested on: HCT-15 colon
# SK-OV-3 ovarian = tested on: SK-OV-3 ovarian
# DU-145 prostate = tested on: DU-145 prostate
# LOX IMVI melanoma = tested on: LOX IMVI melanoma
# A498 renal = tested on: A498 renal
# SF-295 CNS = tested on: SF-295 CNS
# MDA-MB-435 melanoma = tested on: MDA-MB-435 melanoma
# COLO 205 colon = tested on: COLO 205 colon
# PC-3 prostate = tested on: PC-3 prostate
# OVCAR-8 ovarian = tested on: OVCAR-8 ovarian
# UACC-257 melanoma = tested on: UACC-257 melanoma
# SK-MEL-5 melanoma = tested on: SK-MEL-5 melanoma
# HCC-2998 colon = tested on: HCC-2998 colon
# U251 glioblastoma = tested on: U251 glioblastoma
# BT-549 breast = tested on: BT-549 breast
# RXF 393 renal = tested on: RXF 393 renal
# NCI-H23 lung = tested on: NCI-H23 lung
# SNB-75 CNS = tested on: SNB-75 CNS
# HS 578T breast = tested on: HS 578T breast
# SNB-19 CNS = tested on: SNB-19 CNS
# OVCAR-3 ovarian = tested on: OVCAR-3 ovarian
# HOP-62 NSCLC = tested on: HOP-62 NSCLC
# SR leukemia = tested on: SR leukemia
# OVCAR-5 ovarian = tested on: OVCAR-5 ovarian
# SN12C renal = tested on: SN12C renal
# SK-MEL-28 melanoma = tested on: SK-MEL-28 melanoma
# NCI-H322M lung = tested on: NCI-H322M lung
# A549 NSCLC = tested on: A549 NSCLC
# ACHN renal = tested on: ACHN renal
# HCT-116 colon = tested on: HCT-116 colon
# CCRF-CEM leukemia = tested on: CCRF-CEM leukemia
# MALME-3M melanoma = tested on: MALME-3M melanoma
# OVCAR-4 ovarian = tested on: OVCAR-4 ovarian
# KM12 colon = tested on: KM12 colon
# 786-0 renal = tested on: 786-0 renal
# NCI/ADR-RES ovarian = tested on: NCI/ADR-RES ovarian
# EKVX NSCLC = tested on: EKVX NSCLC
# NCI-H522 lung = tested on: NCI-H522 lung
# T-47D breast = tested on: T-47D breast
# M14 melanoma = tested on: M14 melanoma
# HOP-92 NSCLC = tested on: HOP-92 NSCLC
# UO-31 renal = tested on: UO-31 renal
# SF-539 CNS = tested on: SF-539 CNS
# CAKI-1 renal = tested on: CAKI-1 renal
# UACC-62 melanoma = tested on: UACC-62 melanoma
# RPMI-8226 leukemia = tested on: RPMI-8226 leukemia
# SW-620 colon = tested on: SW-620 colon
# NCI-H460 NSCLC = tested on: NCI-H460 NSCLC
# SF-268 CNS = tested on: SF-268 CNS
# NCI-H226 lung = tested on: NCI-H226 lung
# MDA-MB-468 breast = tested on: MDA-MB-468 breast
# MOLT-4 leukemia = tested on: MOLT-4 leukemia
# MCF7 breast = tested on: MCF7 breast
# HL-60(TB) leukemia = tested on: HL-60(TB) leukemia
# IGROV1 ovarian = tested on: IGROV1 ovarian
structure (smiles),measurement,setting,value
CCN(c1cc(-c2ccc(CN3CCOCC3)cc2)cc(C(=O)NCc2c(C)cc(C)[nH]c2=O)c1C)C1CCOCC1,GI50,HT29 colon,> 100 µM
same,TGI,HT29 colon,> 100 µM
same,GI50,TK-10 renal,> 100 µM
same,TGI,TK-10 renal,> 100 µM
same,GI50,MDA-MB-231 breast,> 100 µM
same,TGI,MDA-MB-231 breast,> 100 µM
same,GI50,HCT-15 colon,98.3 µM
same,TGI,HCT-15 colon,> 100 µM
same,GI50,SK-OV-3 ovarian,> 100 µM
same,TGI,SK-OV-3 ovarian,> 100 µM
same,GI50,DU-145 prostate,> 100 µM
same,TGI,DU-145 prostate,> 100 µM
same,GI50,LOX IMVI melanoma,> 51.5 µM
same,TGI,LOX IMVI melanoma,> 100 µM
same,GI50,A498 renal,> 81.8 µM
same,TGI,A498 renal,> 100 µM
same,GI50,SF-295 CNS,> 100 µM
same,TGI,SF-295 CNS,> 100 µM
same,GI50,MDA-MB-435 melanoma,> 100 µM
same,TGI,MDA-MB-435 melanoma,> 100 µM
same,GI50,COLO 205 colon,> 100 µM
same,TGI,COLO 205 colon,> 100 µM
same,GI50,PC-3 prostate,> 100 µM
same,TGI,PC-3 prostate,> 100 µM
same,GI50,OVCAR-8 ovarian,> 100 µM
same,TGI,OVCAR-8 ovarian,> 100 µM
same,GI50,UACC-257 melanoma,> 100 µM
same,TGI,UACC-257 melanoma,> 100 µM
same,GI50,SK-MEL-5 melanoma,> 100 µM
same,TGI,SK-MEL-5 melanoma,> 100 µM
same,GI50,HCC-2998 colon,> 100 µM
same,TGI,HCC-2998 colon,> 100 µM
same,GI50,U251 glioblastoma,> 100 µM
same,TGI,U251 glioblastoma,> 100 µM
same,GI50,BT-549 breast,> 37.1 µM
same,TGI,BT-549 breast,> 63.9 µM
same,GI50,RXF 393 renal,> 60.3 µM
same,TGI,RXF 393 renal,> 100 µM
same,GI50,NCI-H23 lung,> 100 µM
same,TGI,NCI-H23 lung,> 100 µM
same,GI50,SNB-75 CNS,> 100 µM
same,TGI,SNB-75 CNS,> 100 µM
same,GI50,HS 578T breast,> 100 µM
same,TGI,HS 578T breast,> 100 µM
same,GI50,SNB-19 CNS,> 100 µM
same,TGI,SNB-19 CNS,> 100 µM
same,GI50,OVCAR-3 ovarian,> 100 µM
same,TGI,OVCAR-3 ovarian,> 100 µM
same,GI50,HOP-62 NSCLC,> 100 µM
same,TGI,HOP-62 NSCLC,> 100 µM
same,GI50,SR leukemia,> 75.7 µM
same,TGI,SR leukemia,> 100 µM
same,GI50,OVCAR-5 ovarian,> 100 µM
same,TGI,OVCAR-5 ovarian,> 100 µM
same,GI50,SN12C renal,> 100 µM
same,TGI,SN12C renal,> 100 µM
same,GI50,SK-MEL-28 melanoma,> 100 µM
same,TGI,SK-MEL-28 melanoma,> 100 µM
same,GI50,NCI-H322M lung,> 100 µM
same,TGI,NCI-H322M lung,> 100 µM
same,GI50,A549 NSCLC,> 76.9 µM
same,TGI,A549 NSCLC,> 100 µM
same,GI50,ACHN renal,> 100 µM
same,TGI,ACHN renal,> 100 µM
same,GI50,HCT-116 colon,> 77.3 µM
same,TGI,HCT-116 colon,> 100 µM
same,GI50,CCRF-CEM leukemia,> 100 µM
same,TGI,CCRF-CEM leukemia,> 100 µM
same,GI50,MALME-3M melanoma,> 100 µM
same,TGI,MALME-3M melanoma,> 100 µM
same,GI50,OVCAR-4 ovarian,> 100 µM
same,TGI,OVCAR-4 ovarian,> 100 µM
same,GI50,KM12 colon,> 100 µM
same,TGI,KM12 colon,> 100 µM
same,GI50,786-0 renal,> 85.4 µM
same,TGI,786-0 renal,> 100 µM
same,GI50,NCI/ADR-RES ovarian,> 100 µM
same,TGI,NCI/ADR-RES ovarian,> 100 µM
same,GI50,EKVX NSCLC,> 100 µM
same,TGI,EKVX NSCLC,> 100 µM
same,GI50,NCI-H522 lung,> 100 µM
same,TGI,NCI-H522 lung,> 100 µM
same,GI50,T-47D breast,> 100 µM
same,TGI,T-47D breast,> 100 µM
same,GI50,M14 melanoma,> 100 µM
same,TGI,M14 melanoma,> 100 µM
same,GI50,HOP-92 NSCLC,> 90.3 µM
same,TGI,HOP-92 NSCLC,> 100 µM
same,GI50,UO-31 renal,> 100 µM
same,TGI,UO-31 renal,> 100 µM
same,GI50,SF-539 CNS,> 100 µM
same,TGI,SF-539 CNS,> 100 µM
same,GI50,CAKI-1 renal,> 69.4 µM
same,TGI,CAKI-1 renal,> 100 µM
same,GI50,UACC-62 melanoma,> 100 µM
same,TGI,UACC-62 melanoma,> 100 µM
same,GI50,RPMI-8226 leukemia,1.39 µM
same,TGI,RPMI-8226 leukemia,> 100 µM
same,GI50,SW-620 colon,> 100 µM
same,TGI,SW-620 colon,> 100 µM
same,GI50,NCI-H460 NSCLC,> 100 µM
same,TGI,NCI-H460 NSCLC,> 100 µM
same,GI50,SF-268 CNS,> 100 µM
same,TGI,SF-268 CNS,> 100 µM
same,GI50,NCI-H226 lung,> 100 µM
same,TGI,NCI-H226 lung,> 100 µM
same,GI50,MDA-MB-468 breast,> 100 µM
same,TGI,MDA-MB-468 breast,> 100 µM
same,GI50,MOLT-4 leukemia,68.4 µM
same,TGI,MOLT-4 leukemia,> 100 µM
same,GI50,MCF7 breast,> 100 µM
same,TGI,MCF7 breast,> 100 µM
same,GI50,HL-60(TB) leukemia,> 49.7 µM
same,TGI,HL-60(TB) leukemia,> 85.8 µM
same,GI50,IGROV1 ovarian,> 91.5 µM
same,TGI,IGROV1 ovarian,> 100 µM
